Tests used:
Presenilin 1 = assay: Western blot of Presenilin 1 in 3xTg-AD mouse brain; format: in vivo; details: 3xTg-AD mice ~12 months old, 5 mg/kg/day, 2 months
Method: Western blots were probed with antibodies against BACE1 and ADAM10. FIG. 11A is a series of Western blots depicting levels of proADAM10, ADAM10, proBACE, BACE, Presenilinl and APP-CFTs in brain extracts from ST101 treated 3×TG-AD mice (S) versus control mice (C). C: control brain extract. S: ST101-treated brain extract. Animals were approximately 12 months old at sacrifice after 2 months of treatment with ST101 at 5 mg/kg/day.

huntingtin = assay: Western blot of pS13 huntingtin in 3xTg-AD mouse brain; format: in vivo; details: 3xTg-AD mice 12 months old, 5 mg/kg/day, 2 months; in the majority of cases
Method: In a first pilot experiment to explore the effect of ST101 on proteins that accumulate in neurodegenerative diseases other than AD, brain extracts from ST101-treated 3xTg-AD mice (S) and control mice (C) mice were analyzed by Western blotting with an antibody directed against huntingtin, specifically against a phospho-epitope around serine 13 (pS13 huntingtin). These extracts are from the same mice as those used in Examples 15 and 16.

[1] = test system: rodent models of learning and memory; details: cited from earlier work
[2] = Chronic and reproductive toxicity studies; format: in vivo
tau [3] = assay: Tau immunohistochemistry with H7 antibody in 3xTg-AD mice; format: in vivo, mouse
From the text: The 3xTg-AD mouse model incorporates both pathological hallmarks of Alzheimer's disease: Aβ amyloid plaques and neurofibrillary tangles. Neurofibrillary tangles consist of accumulates of abnormally phosphorylated tau protein. In the 3xTg-AD mice pathological somato-dendritic accumulation of tau can be seen in immunohistochemistry as part of the disease model phenotype.
ST101 effects on tau distribution and accumulation were explored in immunohistochemistry with H7 anti-tau antibody.

tau [4] = assay: Western blot of tau species in 3xTg-AD mouse brain; format: in vivo; details: 3xTg-AD mice ~12 months old, 5 mg/kg/day, 2 months, overexposed blot
From the text: The status of tau phosphorylation, accumulation and degradation can be assessed in Western blots. Two anti-tau antibodies, directed against non-phosphorylated and phosphorylated tau, were used to probe brain extracts from the initial experiment. FIG. 12 is a series of Western blots depicting levels of full-length tau, tau accumulates, tau degradation products and phosphorylated tau levels in brain extracts from ST101 treated 3×TG-AD mice (S) versus control mice (C). Beta actin levels (Ac) were used as a loading control. P-tau, two panels per antibody: top—normal exposure; bottom—overexposure to visualize minor protein bands. Ac: beta actin antibody as protein loading control. Animals were approximately 12 months old at sacrifice after 2 months of treatment with ST101 at 5 mg/kg/day.

ADAM17 (TACE) = assay: Western blot of TACE in 3xTg-AD mouse brain; format: in vivo; details: 3xTg-AD mice ~14.5 months old, 5 mg/kg/day in drinking water, 2 months as printed
Method: In addition to ADAM10, ADAM17 (TACE, which is Tumor Necrosis Factor converting enzyme) is known to act as an alpha-secretase of APP. Thus, it was tested in a Western blot whether ST101 reduces levels of ADAM17 (TACE).
The Western blot was obtained using a TACE specific antibody in brain extracts from ST101 treated 3×TG-AD mice (S) versus control mice (C). Animals were approximately 14.5 months old at sacrifice after 2 months of treatment with ST101 at 5 mg/kg/day in drinking water.

[5] = test system: long-term potentiation (LTP); details: cited from earlier work
SAMP8 mouse = details: cited from earlier work
acetylated alpha-tubulin = assay: Western blot of acetylated alpha-tubulin in cynomolgus monkey hippocampus; format: in vivo; details: cynomolgus monkeys of Example 19, hippocampal brain samples
From the text: The effects on tubulin were confirmed in the group of cynomolgus monkeys described in example 19.

O=C1N=C2C=CC=CN2C12Cc1ccccc1C2 [ST101, spiro(imidazo[1,2-a]pyridin-2(3H)-one-3,2′-indan)]
Presenilin 1 level (Presenilin 1): did not show significant changes
huntingtin protein levels (pS13 huntingtin) (huntingtin): significantly reduced
memory deficits induced by chemical amnesic agents ([1]; methamphetamine, MK-801, scopolamine): attenuates
age-impaired memory ([1]; rodent models): significantly improves
toxicity in chronic toxicity studies ([2]; high doses): very little toxicity
toxicity in reproductive toxicity studies ([2]; monkey, in vivo): very little toxicity
safety in rodent and monkey toxicity studies ([2]; up to 6 months, doses up to approximately 100-fold higher than in 3xTg-AD mice): proven safe
neuronal loss, Hematoxylin/Eosin stained control sections (tau [3]): no neuronal loss
pathological somato-dendritic tau staining (tau [3]; hippocampus, H7 anti-tau antibody): clear reduction
accumulated tau and degradation products (tau [4]; H7 antibody): disappearance
phosphorylated tau degradation product (tau [4]; R-p-tau antibody): appearance of a new phosphorylated tau degradation product
TACE levels (ADAM17 (TACE)): reduction of TACE levels in the majority of ST101 treated animals
long-term potentiation (LTP) [5]: efficacy in increasing long-term potentiation (LTP)
accumulation of Aβ-like deposits in brain tissue (SAMP8 mouse): decreased
learning and memory functions (SAMP8 mouse): improvement
acetylated alpha-tubulin fragments (acetylated alpha-tubulin): reduction
